The values that follow come from US20230312587A1, “PTERIDINONE COMPOUNDS AND USES THEREOF” (Vertex Pharmaceutical Incorporated, priority 2018, published 2023).

Structures are written as SMILES. pIC50: −log10 of the molar value. Where two headings read alike, the source gives them in different places.

For this test, the system named is β-catenin-TCF-mediated reporter transcription activity in Colo 205 cells. Put plainly: Colo 205 reporter assay (TCF/LEF luciferase). The note with it: five hours after addition of compound. The test is classed as cell-based. Put shortly:
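Luciferase signal from a TCF/LEF-driven reporter, stably integrated in Colo 205 colon cancer cells, was measured 5 h after compound addition.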
A general note: In a reporter assay the amount or activity of a reporter protein is the signal.

[1] abbreviates: Homo sapiens, COLO 205, 5 h, Colo 205 TCF/LEF luciferase reporter, read-out: TCF reporter Colo205 IC50.
Setting [2] is: Colo 205 TCF/LEF luciferase reporter, read-out: TCF reporter Colo205 IC50.

Turning to `Cc1nc(NCc2cnn(Cc3ccc(F)c(F)c3)c2)nc2c1N(C)C(=O)[C@H](C)N2C` [Compound 28, (7S)-2-(((1-(3,4-difluorobenzyl)-1H-pyrazol-4-yl)methyl)amino)-4,5,7,8-tetramethyl-7,8-dihydropteridin-6(5H)-one], the pIC50 under setting [1] is greater than 6.52.

In the case of `Cc1nc(N[C@H]2C[C@@H](Cn3nc(Cl)c(C#N)n3)C2)nc2c1NC(=O)[C@H](C(C)C)N2C` [Compound 695, 5-chloro-2-((cis-3-(((S)-7-isopropyl-4,8-dimethyl-6-oxo-5,6,7,8-tetrahydropteridin-2-yl)amino)cyclobutyl)methyl)-2H-1,2,3-triazole-4-carbonitrile], the pIC50 under setting [1] is greater than 6.52.

As for `CC[C@H]1C(=O)Nc2c(C)nc(N[C@H]3C[C@@H](Cn4ccc(C(F)(F)F)n4)C3)nc2N1C` [Compound 692, (S)-7-ethyl-4,8-dimethyl-2-((cis-3-((3-(trifluoromethyl)-1H-pyrazol-1-yl)methyl)cyclobutyl)amino)-7,8-dihydropteridin-6(5H)-one], the pIC50 under setting [1] is 6.00 to 6.52.

`Cc1nc(N[C@H]2C[C@H](Sc3cc(F)c(F)c(F)c3)C2)nc2c1N(C)C(=O)[C@H](C)N2C` [Compound 330, (7S)-4,5,7,8-tetramethyl-2-((trans-3-((3,4,5-trifluorophenyl)thio)-cyclobutyl)amino)-7,8-dihydropteridin-6(5H)-one]: the pIC50 under setting [1] was 6.00 to 6.52.

Regarding `COc1nc(C(F)(F)F)ccc1Cn1cc(CNc2nc(C)c3c(n2)N(C)[C@@H](C)C(=O)N3)cn1` [Compound 218, (7S)-2-(((1-((2-methoxy-6-(trifluoromethyl)pyridin-3-yl)methyl)-1H-pyrazol-4-yl)methyl)amino)-4,7,8-trimethyl-7,8-dihydropteridin-6(5H)-one], under setting [1], the pIC50 was greater than 6.52.

With `Cc1nc(NCc2cnn([C@@H]3C[C@@H]3c3ccc(F)cc3)c2)nc2c1N(C)C(=O)[C@H](C)N2C` [Compound 152, (7S)-2-(((1-((1R,2R)-2-(4-fluorophenyl)cyclopropyl)-1H-pyrazol-4-yl)methyl)amino)-4,5,7,8-tetramethyl-7,8-dihydropteridin-6(5H)-one], the pIC50 under setting [1] was greater than 6.52.

As for `CCN1C(=O)C(C)(C)N(CC)c2nc(NCc3cnn(Cc4cc(F)c(F)c(F)c4)c3)ncc21` [Compound 231, 5,8-diethyl-7,7-dimethyl-2-(((1-(3,4,5-trifluorobenzyl)-1H-pyrazol-4-yl)methyl)amino)-7,8-dihydropteridin-6(5H)-one], the pIC50 under setting [1] was greater than 6.52.

As for `CO[C@H](C)[C@H]1C(=O)N(C)c2cnc(NCc3cnn(Cc4cc(F)c(F)c(F)c4)c3)nc2N1C` [Compound 21, (7S)-7-((R)-1-methoxyethyl)-5,8-dimethyl-2-(((1-(3,4,5-trifluorobenzyl)-1H-pyrazol-4-yl)methyl)amino)-7,8-dihydropteridin-6(5H)-one], the pIC50 under setting [1] was greater than 6.52.

As to `Cc1nc(NCc2cnn(Cc3ccc(F)cc3O)c2)nc2c1NC(=O)[C@H](C)N2C` [Compound 87, (7S)-2-(((1-(4-fluoro-2-hydroxybenzyl)-1H-pyrazol-4-yl)methyl)amino)-4,7,8-trimethyl-7,8-dihydropteridin-6(5H)-one], the pIC50 under setting [1] was greater than 6.52.

Take `CC[C@H]1C(=O)N(C)c2cnc(NCc3cnn(Cc4cc(F)c(F)c(F)c4)c3)nc2N1C(C)C` [Compound 36, (7S)-7-ethyl-8-isopropyl-5-methyl-2-(((1-(3,4,5-trifluorobenzyl)-1H-pyrazol-4-yl)methyl)amino)-7,8-dihydropteridin-6(5H)-one]: the pIC50 under setting [1] is greater than 6.52.

For the compound `COC(=O)N(Cc1cnn(Cc2ccc(C(F)(F)F)nc2)c1)c1nc(C)c2c(n1)N(C)[C@@H](C)C(=O)N2` [Compound 407, methyl (7S)-((1-((6-(trifluoromethyl)pyridin-3-yl)methyl)-1H-pyrazol-4-yl)methyl)(4,7,8-trimethyl-6-oxo-5,6,7,8-tetrahydropteridin-2-yl)carbamate], for the setting “Homo sapiens, COLO 205, 5 h, Colo 205 cells with stably transfected TCF/LEF luciferase reporter, read-out: TCF reporter Colo205”, the pIC50 is no more than 5.30.

For `COC1(C2C(=O)Nc3c(C)nc(N[C@H]4C[C@@H](Nc5cnc(C(F)(F)F)cn5)C4)nc3N2C)CCC1` (relative stereo) [Compound 672, 7-(1-methoxycyclobutyl)-4,8-dimethyl-2-((cis-3-((5-(trifluoromethyl)pyrazin-2-yl)amino)cyclobutyl)amino)-7,8-dihydropteridin-6(5H)-one], the pIC50 under setting [1] is greater than 6.52.

For the compound `Cc1nc(N[C@H]2C[C@H](Nc3ccc(C(F)(F)F)nn3)C2)nc2c1NC(=O)[C@H](C(C)C)N2C` [Compound 555, (S)-7-isopropyl-4,8-dimethyl-2-((trans-3-((6-(trifluoromethyl)pyridazin-3-yl)amino)cyclobutyl)amino)-7,8-dihydropteridin-6(5H)-one], the pIC50 under setting [1] was 5.30 to 6.00.

On to `Cc1nn(Cc2ccc(C(F)(F)F)nc2)c(C)c1CNc1nc(C)c2c(n1)N(C)[C@@H](C)C(=O)N2` [Compound 212, (7S)-2-(((3,5-Dimethyl-1-((6-(trifluoromethyl)pyridin-3-yl)methyl)-1H-pyrazol-4-yl)methyl)amino)-4,7,8-trimethyl-7,8-dihydropteridin-6(5H)-one], for which the pIC50 under setting [1] is no more than 5.30.

Regarding `Cc1nc(N[C@H]2C[C@@H](NC(=O)Nc3ccc(F)c(F)c3F)C2)nc2c1NC(=O)[C@H](C)N2C` [Compound 460, 1-(2,3,4-trifluorophenyl)-3-(cis-3-(((S)-4,7,8-trimethyl-6-oxo-5,6,7,8-tetrahydropteridin-2-yl)amino)cyclobutyl)urea], the pIC50 under setting [1] was greater than 6.52.

`COCC1(C)C(=O)Nc2c(C)nc(NC3CN(C(=O)c4cc(F)c(F)c(F)c4)C3)nc2N1C` (stereo not shown) [Compound 722, 7-(methoxymethyl)-4,7,8-trimethyl-2-((1-(3,4,5-trifluorobenzoyl)azetidin-3-yl)amino)-7,8-dihydropteridin-6(5H)-one]: the pIC50 under setting [2] is 5.30 to 6.00.

On to `COc1ccc(N[C@H]2C[C@@H](Nc3nc(C)c4c(n3)N(C)[C@@H](C(C)C)C(=O)N4)C2)nc1` [Compound 733, (S)-7-isopropyl-2-((cis-3-((5-methoxypyridin-2-yl)amino)cyclobutyl)amino)-4,8-dimethyl-7,8-dihydropteridin-6(5H)-one], for which, under setting [1], the pIC50 was no more than 5.30.

For the compound `Cc1nc(N[C@H]2C[C@H](c3ccc(OC(F)(F)F)cc3)C2)nc2c1NC(=O)[C@H](C)N2C` [Compound 506, (7S)-4,7,8-trimethyl-2-(((trans)-3-(4-(trifluoromethoxy)phenyl)cyclo-butyl)amino)-7,8-dihydropteridin-6(5H)-one], under setting [1], the pIC50 is 6.00 to 6.52.

As to `Cc1nc(N[C@H]2C[C@H](NC(=O)Nc3ccc(C(F)(F)F)nc3)C2)nc2c1NC(=O)[C@H](C)N2C` [Compound 471, 1-(6-(trifluoromethyl)pyridin-3-yl)-3-(trans-3-(((S)-4,7,8-trimethyl-6-oxo-5,6,7,8-tetrahydropteridin-2-yl)amino)cyclobutyl)urea], the pIC50 under setting [1] is no more than 5.30.

With `CCN1C(=O)[C@H](CCO)N(CC)c2nc(NCc3cnn(Cc4cccc(C(F)(F)F)c4)c3)ncc21` [Compound 49, (7S)-5,8-diethyl-7-(2-hydroxyethyl)-2-(((1-(3-(trifluoromethyl)benzyl)-1H-pyrazol-4-yl)methyl)amino)-7,8-dihydropteridin-6(5H)-one], the pIC50 under setting [1] is greater than 6.52.

Consider `Cc1nc(NCc2cnn(C(C)c3ccc(F)cc3)c2)nc2c1NC(=O)[C@H](C)N2C` (stereo partly drawn) [Compound 382, (7S)-2-(((1-(1-(4-fluorophenyl)ethyl)-1H-pyrazol-4-yl)methyl)amino)-4,7,8-trimethyl-7,8-dihydropteridin-6(5H)-one], for which, under setting [1], the pIC50 was greater than 6.52.

With `Cc1nc(N[C@H]2C[C@H](Oc3ccnc(C(F)(F)F)c3)C2)nc2c1N(C)C(=O)[C@H](C)N2C` [Compound 337, (7S)-4,5,7,8-tetramethyl-2-((trans-3-((2-(trifluoromethyl)pyridin-4-yl)oxy)cyclobutyl)amino)-7,8-dihydropteridin-6(5H)-one], the pIC50 under setting [1] is 6.00 to 6.52.

Regarding `Cc1nc(N[C@H]2CO[C@H](COc3cc(F)c(F)c(F)c3)C2)nc2c1NC(=O)[C@H](C)N2C` [Compound 302, (7S)-4,7,8-trimethyl-2-(((3R,5S)-5-((3,4,5-trifluorophenoxy)methyl)tetrahydrofuran-3-yl)amino)-7,8-dihydropteridin-6(5H)-one], the pIC50 under setting [2] is 5.30 to 6.00.

Consider `Cc1nc(NCc2cnn(CC(=O)c3ccc(F)cc3)c2)nc2c1NC(=O)[C@H](C)N2C` [Compound 91, (7S)-2-(((1-(2-(4-fluorophenyl)-2-oxoethyl)-1H-pyrazol-4-yl)methyl)amino)-4,7,8-trimethyl-7,8-dihydropteridin-6(5H)-one], for which the pIC50 under setting [1] was greater than 6.52.

Turning to `CC[C@H]1C(=O)Nc2c(C)nc(NCc3cnn(Cc4ccc(OC(F)F)nc4)c3)nc2N1C` [Compound 417, (7S)-2-(((1-((6-(difluoromethoxy)pyridin-3-yl)methyl)-1H-pyrazol-4-yl)methyl)amino)-7-ethyl-4,8-dimethyl-7,8-dihydropteridin-6(511)-one], under setting [2], the pIC50 is greater than 6.52.

Take `Cc1nc(N[C@H]2C[C@@H](Nc3ccnc(C(F)(F)F)n3)C2)nc2c1NC(=O)[C@H](C(C)C)N2C` [Compound 539, (S)-7-isopropyl-4,8-dimethyl-2-((cis-3-((2-(trifluoromethyl)pyrimidin-4-yl)amino)cyclobutyl)amino)-7,8-dihydropteridin-6(5H)-one]: the pIC50 under setting [1] was 6.00 to 6.52.

With `Cc1nc(N[C@H]2CCc3c2cnn3Cc2ccc(C(F)(F)F)nc2)nc2c1NC(=O)[C@H](C)N2C` [Compound 624, (7S)-4,7,8-trimethyl-2-(((S)-1-((6-(trifluoromethyl)pyridin-3-yl)methyl)-1,4,5,6-tetrahydrocyclopenta[c]pyrazol-4-yl)amino)-7,8-dihydropteridin-6(5H)-one], the pIC50 under setting [1] is no more than 5.30.

For `Cc1nc(N[C@H]2C[C@H](Sc3ccc(C(F)(F)F)cc3)C2)nc2c1NC(=O)[C@H](C)N2C` [Compound 317, (7S)-4,7,8-trimethyl-2-((trans-3-((4-(trifluoromethyl)phenyl)thio)-cyclobutyl)amino)-7,8-dihydropteridin-6(5H)-one], the pIC50 under setting [1] was 6.00 to 6.52.
